Settings: the rest remains in inactive suspension

## [Ca+2].[F-].[F-] [CaF2, Calcium-Fluoride]
  amount going into solution in water: 16 ppm
